Test results published in ChEMBL document CHEMBL5260826, “Enzyme inhibitory activities an insight into the structure-Activity relationship of biscoumarin derivatives” (Eur J Med Chem, 2017).
≈ marks a conversion by molar mass, not a printed value.

molecular target: cAMP-dependent protein kinase (PKA) (Homo sapiens, UniProt P22694+P17612+P22612); experiment: Inhibition of PKA (unknown origin) using Kemptide as substrate incubated for [gamma-32P]-ATP incubated for 5 mins by scintillation counter analysis; type: protein assay

SMILES	IC50 [µM]
O=c1ccc2ccc(O)c(O)c2o1 [DAPHNETIN]	9.33

molecular target: not listed separately; experiment: Inhibition of porcine pancreas alpha-amylase using CNP-G3 as substrate preincubated for 10 mins followed by substrate addition and measured after 30 mins by microplate reader analysis; design: species or system Sus scrofa

SMILES	IC50 [µg/mL]
COc1cc2cc(Oc3ccc4ccc(=O)oc4c3)c(=O)oc2cc1O [DAPHNORETIN]	90 (≈ 255 µM)

molecular target: T1, Hepatocyte growth factor receptor (Homo sapiens, UniProt P08581); experiment: Inhibition of c-Met (unknown origin)
T1 sequence (P08581 whole entry): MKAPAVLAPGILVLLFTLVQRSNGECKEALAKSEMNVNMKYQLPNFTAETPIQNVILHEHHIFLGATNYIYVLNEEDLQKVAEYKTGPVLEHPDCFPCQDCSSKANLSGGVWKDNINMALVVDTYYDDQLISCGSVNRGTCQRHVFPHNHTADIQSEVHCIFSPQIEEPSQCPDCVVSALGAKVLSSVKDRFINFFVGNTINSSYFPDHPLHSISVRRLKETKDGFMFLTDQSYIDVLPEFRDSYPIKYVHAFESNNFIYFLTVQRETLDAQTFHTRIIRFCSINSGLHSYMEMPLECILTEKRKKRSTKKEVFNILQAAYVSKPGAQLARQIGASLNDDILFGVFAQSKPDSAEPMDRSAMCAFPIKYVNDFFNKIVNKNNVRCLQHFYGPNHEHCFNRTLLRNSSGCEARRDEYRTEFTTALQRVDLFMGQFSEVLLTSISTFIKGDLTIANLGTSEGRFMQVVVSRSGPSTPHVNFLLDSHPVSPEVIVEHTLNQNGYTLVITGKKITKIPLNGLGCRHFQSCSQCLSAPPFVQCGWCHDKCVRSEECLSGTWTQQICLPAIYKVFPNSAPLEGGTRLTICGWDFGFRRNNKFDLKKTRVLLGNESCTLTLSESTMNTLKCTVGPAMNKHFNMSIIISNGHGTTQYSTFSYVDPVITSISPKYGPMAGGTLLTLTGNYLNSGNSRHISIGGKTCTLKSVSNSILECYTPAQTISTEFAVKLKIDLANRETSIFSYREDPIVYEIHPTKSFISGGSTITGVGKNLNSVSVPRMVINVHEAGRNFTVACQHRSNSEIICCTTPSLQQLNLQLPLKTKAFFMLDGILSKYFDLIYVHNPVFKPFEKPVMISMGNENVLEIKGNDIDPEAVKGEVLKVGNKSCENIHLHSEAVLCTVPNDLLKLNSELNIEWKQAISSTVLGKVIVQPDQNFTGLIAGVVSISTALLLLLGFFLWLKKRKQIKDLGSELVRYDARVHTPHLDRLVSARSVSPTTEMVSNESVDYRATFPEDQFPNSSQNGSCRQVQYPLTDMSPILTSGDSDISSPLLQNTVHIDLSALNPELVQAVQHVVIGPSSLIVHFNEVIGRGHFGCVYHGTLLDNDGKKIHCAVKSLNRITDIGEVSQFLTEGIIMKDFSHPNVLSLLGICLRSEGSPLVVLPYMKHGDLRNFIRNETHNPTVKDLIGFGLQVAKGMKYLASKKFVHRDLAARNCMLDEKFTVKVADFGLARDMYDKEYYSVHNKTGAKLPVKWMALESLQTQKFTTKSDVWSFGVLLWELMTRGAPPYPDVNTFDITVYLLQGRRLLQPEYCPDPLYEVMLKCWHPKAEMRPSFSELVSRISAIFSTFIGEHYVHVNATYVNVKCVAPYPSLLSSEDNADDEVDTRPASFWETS

SMILES	IC50 [µM]
O=c1cc(O)c2ccc(O)c(O)c2o1	100
O=c1oc2c(O)c(O)ccc2c(O)c1Cc1c(O)c2ccc(O)c(O)c2oc1=O	151

molecular target: T2, Alpha-glucosidase (Saccharomyces cerevisiae S288c, UniProt P53341+P38158+P07265); experiment: Inhibition of Saccharomyces cerevisiae alpha-glucosidase using pNPG as substrate incubated for 30 mins by microplate reader analysis; type: protein assay

SMILES	IC50 [µg/mL]
O=c1ccc2ccc(O)c(-c3c(O[C@@H]4OC(CO)[C@@H](O)C(O)C4O)ccc4ccc(=O)oc34)c2o1 (some centres not stated)	760 (≈ 1570 µM)
COc1cc2c(O)c(Oc3cc(O[C@@H]4O[C@H](CO)[C@@H](O)[C@H](O)[C@H]4O[C@@H]4O[C@H](CO)[C@@H](O)[C@H](O)[C@H]4O)c4ccc(=O)oc4c3)c(=O)oc2cc1O	231 (≈ 326 µM)
COc1cc2cc(Oc3ccc4ccc(=O)oc4c3)c(=O)oc2cc1O [DAPHNORETIN]	86 (≈ 244 µM)
O=c1ccc2ccc(Oc3cc4cc(O)c(O)cc4oc3=O)cc2o1 [EDGEWORTHIN]	49.6 (≈ 147 µM)

molecular target: DNA polymerase beta (Homo sapiens, UniProt P06746); experiment: Inhibition of DNA polymerase beta (unknown origin)

SMILES	IC50 [µM]
O=c1oc2ccccc2c(O)c1C(c1ccc(NC(=S)Nc2ccc([N+](=O)[O-])cc2)cc1)c1c(O)c2ccccc2oc1=O	24.7
COc1cc2c(O)c(Cc3ccc4ccc(=O)oc4c3)c(=O)oc2cc1O	122
O=c1ccc2ccc(Cc3c(O)c4cc(O)c(O)cc4oc3=O)cc2o1	94.8
O=c1ccc2ccc(Cc3cc4ccc(O)cc4oc3=O)cc2o1	22.5

molecular target: not listed separately; experiment: Inhibition of HIV-1 wild-type integrase using U5A/U5B-2 labeled double-stranded DNA as substrate by beta radiation counter analysis; design: species or system Human immunodeficiency virus 1

SMILES	IC50 [µM]
O=C(Oc1ccc(C(c2c(O)c3ccccc3oc2=O)c2c(O)c3ccccc3oc2=O)cc1)c1ccc(C(c2c(O)c3ccccc3oc2=O)c2c(O)c3ccccc3oc2=O)cc1	0.49
CC(=O)Oc1ccc(/C=C/C(=O)Oc2ccc(C(c3c(O)c4ccccc4oc3=O)c3c(O)c4ccccc4oc3=O)cc2)cc1OC(C)=O	2.6
O=C(CCCCC1CCSS1)Oc1ccc(C(c2c(O)c3ccccc3oc2=O)c2c(O)c3ccccc3oc2=O)cc1 (configuration not stated)	2.3
Cc1ccc(C(=O)OCCN(CCOC(=O)c2ccc(C)cc2)c2ccc(C(c3c(O)c4ccccc4oc3=O)c3c(O)c4ccccc4oc3=O)cc2)cc1	1.8
O=C(Oc1ccc(C(c2c(O)c3ccccc3oc2=O)c2c(O)c3ccccc3oc2=O)cc1)c1ccccc1O	10
O=C(Oc1ccc(C(c2c(O)c3ccccc3oc2=O)c2c(O)c3ccccc3oc2=O)cc1)c1ccc(O)cc1O	4.9
O=C(OCCN(CCOC(=O)c1ccc(Br)cc1)c1ccc(C(c2c(O)c3ccccc3oc2=O)c2c(O)c3ccccc3oc2=O)cc1)c1ccc(Br)cc1	0.96
O=C(Oc1ccc(C(c2c(O)c3ccccc3oc2=O)c2c(O)c3ccccc3oc2=O)cc1)c1ccc(O)cc1	3.2
CC(=O)Oc1cc(OC(C)=O)cc(C(=O)Oc2ccc(C(c3c(O)c4ccccc4oc3=O)c3c(O)c4ccccc4oc3=O)cc2)c1	9.3
CC(=O)Oc1cccc(C(=O)Oc2ccc(C(c3c(O)c4ccccc4oc3=O)c3c(O)c4ccccc4oc3=O)cc2)c1	7.1
CC(=O)Oc1ccc(C(=O)Oc2ccc(C(c3c(O)c4ccccc4oc3=O)c3c(O)c4ccccc4oc3=O)cc2)c(OC(C)=O)c1	19
O=C(Oc1ccc(C(c2c(O)c3ccccc3oc2=O)c2c(O)c3ccccc3oc2=O)cc1)c1cccc(O)c1	6.1
O=C(Oc1ccc(C(c2c(O)c3ccccc3oc2=O)c2c(O)c3ccccc3oc2=O)cc1)c1cc(O)ccc1O	25
O=C(/C=C/c1ccc(O)c(O)c1)Oc1ccc(C(c2c(O)c3ccccc3oc2=O)c2c(O)c3ccccc3oc2=O)cc1	2.6
Cc1ccc(C(=O)Oc2cc(OC(=O)c3ccc(C)cc3)cc(C(c3c(O)c4ccccc4oc3=O)c3c(O)c4ccccc4oc3=O)c2)cc1	0.58
O=C(Oc1ccc(C(c2c(O)c3ccccc3oc2=O)c2c(O)c3ccccc3oc2=O)cc1)c1ccc(O)c(O)c1	1.5
COc1ccc(/C=C/C(=O)Oc2ccc(C(c3c(O)c4ccccc4oc3=O)c3c(O)c4ccccc4oc3=O)cc2)cc1OC	2.6
CC(=O)Oc1ccccc1C(=O)Oc1ccc(C(c2c(O)c3ccccc3oc2=O)c2c(O)c3ccccc3oc2=O)cc1	27
CC(=O)Oc1ccc(C(=O)Oc2ccc(C(c3c(O)c4ccccc4oc3=O)c3c(O)c4ccccc4oc3=O)cc2)cc1	4.6
CC(=O)Oc1ccc(OC(C)=O)c(C(=O)Oc2ccc(C(c3c(O)c4ccccc4oc3=O)c3c(O)c4ccccc4oc3=O)cc2)c1	9.7
CC(=O)Oc1ccc(C(=O)Oc2ccc(C(c3c(O)c4ccccc4oc3=O)c3c(O)c4ccccc4oc3=O)cc2)cc1OC(C)=O	1.9
O=C(Oc1ccc(C(c2c(O)c3ccccc3oc2=O)c2c(O)c3ccccc3oc2=O)cc1)c1cc(O)cc(O)c1	53
O=C(Oc1c(C(c2ccc(O)cc2)c2c(O)c3ccccc3oc2=O)c(=O)oc2ccccc12)c1ccc(O)c(O)c1 (configuration not stated)	37

molecular target: not listed separately; experiment: Inhibition of HIV-1 integrase; design: species or system Human immunodeficiency virus 1

SMILES	IC50 [µM]
O=c1oc2ccccc2c(O)c1C(c1ccc(C(c2c(O)c3ccccc3oc2=O)c2c(O)c3ccccc3oc2=O)cc1)c1c(O)c2ccccc2oc1=O	8

system: not listed separately; experiment: Inhibition of urease (unknown origin)

SMILES	IC50 [µM]
O=c1oc2ccccc2c(O)c1C(c1c(O)c2ccccc2oc1=O)c1c[nH]c2ccccc12	48.4
O=c1oc2ccccc2c(O)c1C(c1cccnc1)c1c(O)c2ccccc2oc1=O	35
O=c1oc2ccccc2c(O)c1C(c1ccc[nH]1)c1c(O)c2ccccc2oc1=O	46.1
C/C=C/C(c1c(O)c2ccccc2oc1=O)c1c(O)c2ccccc2oc1=O	42.9
O=c1oc2ccccc2c(O)c1Cc1c(O)c2ccccc2oc1=O [DICUMAROL]	15

molecular target: Protein kinase C (PKC); experiment: Inhibition of PKC (unknown origin) using acetylated myelin basic protein (4 to 14 residues) as substrate incubated for [gamma-32P]-ATP incubated for 5 mins by scintillation counter analysis; type: protein assay, Homo sapiens

SMILES	IC50 [µM]
O=c1ccc2ccc(O)c(O)c2o1 [DAPHNETIN]	25.01

molecular target: T2, Alpha-glucosidase; experiment: Inhibition of Baker's yeast alpha-glucosidase using pNPG as substrate assessed as release of p-nitrophenol preincubated for 10 mins followed by substrate addition and measured after 30 mins by microplate reader analysis; type: protein assay

SMILES	IC50 [µM]
COc1ccc(NC(=S)Nc2ccc(C(c3c(O)c4ccccc4oc3=O)c3c(O)c4ccccc4oc3=O)cc2)cc1	13.5
COc1ccccc1NC(=S)Nc1ccc(C(c2c(O)c3ccccc3oc2=O)c2c(O)c3ccccc3oc2=O)cc1	104.62
COc1cccc(NC(=S)Nc2ccc(C(c3c(O)c4ccccc4oc3=O)c3c(O)c4ccccc4oc3=O)cc2)c1	25.31

molecular target: T1, Hepatocyte growth factor receptor; experiment: Inhibition of c-Met (unknown origin) using poly (Glu,Tyr) at 4:1 ratio as substrate incubated for 60 mins by ELISA

SMILES	IC50 [µM]
CCCCCCC(NC(=O)c1cc2ccc(O)c(O)c2oc1=O)C(=O)Nc1cc2ccc(O)c(O)c2oc1=O (configuration not stated)	0.03
CC(C)CC(NC(=O)c1cc2ccc(O)c(O)c2oc1=O)C(=O)Nc1cc2ccc(O)c(O)c2oc1=O (configuration not stated)	0.107
